The values that follow come from ChEMBL document CHEMBL1201862, “PubChem BioAssay data set” (2004).

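Compound exposure: 48 hours, 5 concentrations, 96-well plates. GI50 is the concentration that inhibits growth by half.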 Activity calls are given as the source filed them. Rule as the data show it: active = GI50 up to about 1.1 µM and inactive = higher.

Some test systems named below: Malme-3M; DU-145; PC-3; RXF 393; MCF7; T47D; NCI-H226; SR; RPMI-8226; NCI/ADR-RES; CAKI-1; A498; MDA-MB-435; Hs-578T; ACHN; NCI-H522; MDA-MB-231.
Common to all, as to assay: NCI tumour cell line growth inhibition, 48 h

Regarding `Nc1nc(Cl)nc2c1ncn2C1CCC(CO)O1` (stereo not given), the GI50 with Malme-3M, with DU-145, in the assay with PC-3, in the assay with RXF 393, in the assay on MCF7 and in the assay on T47D was > 100 µM (inactive) each time. For the same molecule, the GI50 was > 100 µM (inactive) with NCI-H226; > 100 µM (inactive) in the assay with SR; > 100 µM (inactive) in the assay with RPMI-8226; 90.6 µM (inactive) with NCI/ADR-RES; > 100 µM (inactive) with CAKI-1; > 100 µM (inactive) with A498. The GI50 in the assay on MDA-MB-435 and in the assay with Hs-578T was > 100 µM (inactive) each time.
As to `CN(C)CCCNC(=O)N/N=C/c1ccccn1`, the GI50 in the assay with Malme-3M, in the assay on ACHN, in the assay on DU-145, with PC-3, in the assay on RXF 393 and in the assay with NCI-H522 was > 10 µM (inactive) throughout. The GI50 in the assay on MCF7, with T47D, in the assay on SR, with RPMI-8226, in the assay on NCI/ADR-RES and in the assay on A498 was > 10 µM (inactive) each time. The GI50 in the assay with Hs-578T and in the assay on MDA-MB-231 was > 10 µM (inactive) throughout.
In the case of `COc1ccc(C2CC(c3c(O)ccc4ccccc34)=NN2)cc1OC` (stereo not given), the GI50 in the assay on Malme-3M is 4.02 µM (inactive); with ACHN, 1.86 µM (inactive); in the assay with DU-145, 5.71 µM (inactive); in the assay with PC-3 it was 3.54 µM (inactive); in the assay on RXF 393, 7.6 µM (inactive); with NCI-H522, 1.82 µM (inactive). The GI50 in the assay with MCF7 was 6.37 µM (inactive); in the assay with T47D, 4.04 µM (inactive); with NCI-H226, 2.54 µM (inactive); in the assay on RPMI-8226 it was 8 µM (inactive); in the assay with NCI/ADR-RES it was 2.62 µM (inactive); in the assay with CAKI-1, 4.9 µM (inactive). Further, the GI50 in the assay with A498 was 18.5 µM (inactive); in the assay with MDA-MB-435, 2.96 µM (inactive); in the assay on Hs-578T, 2.16 µM (inactive); with MDA-MB-231, 9.79 µM (inactive).
In the case of `Cc1cc(=O)n2nc(CSc3nnc(S)s3)sc2n1`, the GI50 in the assay with Malme-3M, in the assay on ACHN, with DU-145, in the assay on PC-3, in the assay on RXF 393 and in the assay with NCI-H522 was > 100 µM (inactive) throughout. Besides, the GI50 in the assay on MCF7, in the assay with T47D, in the assay with NCI-H226, in the assay on SR, with RPMI-8226 and in the assay on NCI/ADR-RES was > 100 µM (inactive) each time. The GI50 with CAKI-1, with MDA-MB-435, in the assay on Hs-578T and with MDA-MB-231 was > 100 µM (inactive) in each case.
With `CC(C)(C)[Si](C)(C)OCC1OC(n2cnc3c(N)ncnc32)CC1O` (stereo not given), the GI50 in the assay with Malme-3M is > 100 µM (inactive); in the assay on DU-145, 95.5 µM (inactive); in the assay on PC-3, 53.1 µM (inactive); with RXF 393, 20.6 µM (inactive); in the assay on MCF7, > 100 µM (inactive); in the assay on T47D it was 41.6 µM (inactive). Besides, the GI50 in the assay with NCI-H226 was 53.1 µM (inactive); in the assay on SR it was 34.8 µM (inactive); with RPMI-8226, 52.8 µM (inactive); in the assay with NCI/ADR-RES, 40.4 µM (inactive); in the assay with CAKI-1, 86.9 µM (inactive); in the assay on A498, 81.8 µM (inactive). Besides, the GI50 with MDA-MB-435 is > 100 µM (inactive); in the assay with Hs-578T, 55.5 µM (inactive); in the assay on MDA-MB-231 it was 52.5 µM (inactive).
Consider `[O-][n+]1c2c([n+]([O-])c3ccccc31)-c1cccc3cccc-2c13`, for which the GI50 in the assay on ACHN is > 100 µM (inactive); with DU-145 it was > 100 µM (inactive); with PC-3, > 100 µM (inactive); in the assay with RXF 393, 21.2 µM (inactive); in the assay on NCI-H522 it was 65.9 µM (inactive); with MCF7 it was > 100 µM (inactive). Further, the GI50 in the assay on T47D, with NCI-H226, with SR, with NCI/ADR-RES, in the assay with A498 and in the assay on MDA-MB-435 was > 100 µM (inactive) throughout. In addition, the GI50 with Hs-578T was 32.9 µM (inactive); with MDA-MB-231 it was 33 µM (inactive).
`COc1cc2c(cc1OC)CCN=C2`: the GI50 in the assay on Malme-3M is > 100 µM (inactive); in the assay on DU-145 it was > 100 µM (inactive); with PC-3, > 100 µM (inactive); with RXF 393, 56.6 µM (inactive); in the assay with MCF7 it was > 100 µM (inactive); in the assay on T47D, > 100 µM (inactive). The GI50 with NCI-H226, with SR, with RPMI-8226, with NCI/ADR-RES, in the assay with CAKI-1 and in the assay on A498 was > 100 µM (inactive) each time. For the same molecule, the GI50 in the assay on MDA-MB-435, with Hs-578T and with MDA-MB-231 was > 100 µM (inactive) throughout.
Regarding `Cc1ccc(Nc2nc(C)c(C(=O)CC(=O)C(=O)Nc3c(C)cccc3C(C)(C)C)s2)cc1`, the GI50 in the assay with ACHN, in the assay on DU-145, in the assay on PC-3, in the assay on RXF 393, in the assay with NCI-H522 and in the assay on MCF7 was > 100 µM (inactive) throughout. Further, the GI50 in the assay on T47D, in the assay on NCI-H226, in the assay with RPMI-8226, in the assay on NCI/ADR-RES, in the assay on CAKI-1 and in the assay on A498 was > 100 µM (inactive) each time. The results for the GI50 with MDA-MB-435, with Hs-578T and with MDA-MB-231 were > 100 µM (inactive), 56 µM (inactive) and 42.9 µM (inactive), respectively.
As to `CSc1nc(Cl)c2c(n1)Sc1ncnn1C2O` (stereo not given), the GI50 in the assay with Malme-3M is 3.18 µM (inactive); in the assay on ACHN it was 4.29 µM (inactive); in the assay with DU-145 it was 7.08 µM (inactive); in the assay with PC-3 it was 13.6 µM (inactive); in the assay with RXF 393, 2.58 µM (inactive); in the assay on NCI-H522, 2.43 µM (inactive). Further, the GI50 in the assay on MCF7 was 3.83 µM (inactive); in the assay with SR, 2.86 µM (inactive); with NCI/ADR-RES, 25.9 µM (inactive); in the assay with CAKI-1, 12.7 µM (inactive); with A498 it was 20 µM (inactive); with MDA-MB-435 it was 4.57 µM (inactive). In addition, the GI50 in the assay with Hs-578T was 5.09 µM (inactive); in the assay on MDA-MB-231 it was 16.1 µM (inactive).
On to `O=C1C=C(Br)c2c(Br)sc(Br)c21`, for which the GI50 is 18.6 µM (inactive) with Malme-3M; 4.62 µM (inactive) with ACHN; 14.9 µM (inactive) in the assay on DU-145; 10.9 µM (inactive) with PC-3; 8.18 µM (inactive) with RXF 393; 2.07 µM (inactive) with NCI-H522. Besides, the GI50 in the assay on MCF7 was 3.85 µM (inactive); in the assay with T47D it was 7.13 µM (inactive); in the assay on NCI-H226, 32.5 µM (inactive); in the assay with SR, 2.9 µM (inactive); in the assay with RPMI-8226 it was 2.99 µM (inactive); in the assay with NCI/ADR-RES, 12.6 µM (inactive). Also, the GI50 was 12 µM (inactive) in the assay with CAKI-1, 10 µM (inactive) in the assay on MDA-MB-435, 30.2 µM (inactive) in the assay with Hs-578T and 17.2 µM (inactive) in the assay with MDA-MB-231.
For `C[n+]1c(-c2ccc(/C=N/Nc3n[nH]c(=S)n3N/N=C/c3ccc(-c4cn5ccccc5[n+]4C)cc3)cc2)cn2ccccc21`, the GI50 with ACHN, in the assay with PC-3, in the assay on NCI-H522, in the assay with MCF7, in the assay on T47D and in the assay with SR was > 100 µM (inactive) throughout. Moreover, the GI50 in the assay with RPMI-8226, in the assay on NCI/ADR-RES, in the assay with MDA-MB-435, in the assay with Hs-578T and with MDA-MB-231 was > 100 µM (inactive) in each case.
`Cc1cc(-c2nc3cccc(O)c3s2)ccc1N`: the GI50 was 18.2 µM (inactive) in the assay on ACHN; > 100 µM (inactive) with DU-145; 27.7 µM (inactive) with PC-3; > 100 µM (inactive) in the assay with RXF 393; 12.5 µM (inactive) in the assay with MCF7; 62.5 µM (inactive) in the assay on T47D. Moreover, the GI50 in the assay on NCI-H226 is 45.1 µM (inactive); in the assay on SR, 40.8 µM (inactive); in the assay with RPMI-8226, 45.2 µM (inactive); with NCI/ADR-RES, 21.1 µM (inactive); in the assay with CAKI-1, 20.8 µM (inactive); with MDA-MB-435 it was 17.4 µM (inactive). The GI50 with Hs-578T was 5.75 µM (inactive); in the assay with MDA-MB-231 it was 31.3 µM (inactive).
Consider `CC(C)(C)c1cc(O)ccc1O` [E319], for which the GI50 with Malme-3M is > 19.3 µM (inactive); with ACHN it was > 85.5 µM (inactive); with DU-145 it was 10.1 µM (inactive); in the assay with PC-3, 1.57 µM (inactive); in the assay with NCI-H522, 5.57 µM (inactive); with MCF7 it was > 100 µM (inactive). Besides, the GI50 in the assay with T47D was 3.83 µM (inactive); in the assay with NCI-H226, > 65.5 µM (inactive); in the assay with SR, 1.1 µM (active); in the assay with RPMI-8226 it was 38.2 µM (inactive); in the assay with NCI/ADR-RES it was > 79.6 µM (inactive); in the assay on CAKI-1, > 57.8 µM (inactive). The GI50 in the assay with A498 is > 100 µM (inactive); in the assay on MDA-MB-435, > 56.8 µM (inactive); in the assay on Hs-578T, > 24 µM (inactive); in the assay with MDA-MB-231, 1.86 µM (inactive).
